The text below walks through data of patent US11964978B2, “Modulators of STING (stimulator of interferon genes)” (PFIZER INC., priority 2021, dated 2024).

Test [1] relates to phosphorylation of IRF3 in THP-1 cells (STING activation). Nature of the test: Phosphorylation of IRF3: THP-1 cell ELISA. It is filed as cell-based. The following applies: Homo sapiens, 3 hours incubation, read-out: THP-1 CELL P-IRF3 EC50. On the procedure: Phosphorylation of IRF3: THP-1 cell ELISA
STING activation results in recruitment of TBK1 and phosphorylation of IRF3 transcription factor before induction of type I interferons. THP-1 cells (InvivoGen) were grown in RPMI media plus 2 mM L-glutamine, 10% fetal bovine serum, and 0.5% Pen-Strep. 10^4 cells were seeded in 96-well plates and incubated overnight […]. Compounds serial diluted compounds in media (final 0.5% DMSO) were added to the cells and incubated for an additional 3 hours. After incubation, the plates were centrifuged at 2000 rpm for 5 min. The cells were then lysed in 100 μl RIPA buffer and vortexed for 30 minutes at room temperature. 25 μl of lysate was then transferred to clear polystyrene High Bind plates that had been previously coated with mouse anti-human IRF-3 capture antibody (BD Pharmigen), and allowed to incubate at 4° C. for 16 hours. The plates were then washed and incubated with rabbit anti-phospho-IRF3 detection antibody (Cell Signaling Technologies) for 1.5 hours at room temperature. Finally, an HRP-linked secondary antibody (Cell Signaling Technologies) was added for 30 min before the Glo Substrate Reagent (R&D Systems) was used generate the luminescent signal. The signal was measured using a Perkin-Elmer Envision microplate reader. Data were normalized to “% effect” with a positive control STING agonist that was known to maximize the phosphorylated IRF3 signal and the negative control was DMSO.
A general note: An ELISA detects its analyte on a solid surface through an enzyme-linked reagent.

Test [2] relates to THP-1 Lucia ISG cells (IRF-inducible Lucia luciferase reporter). Put plainly: Interferon-β induction: THP-1 ISG reporter cell line. It is filed as cell-based. The settings on record: THP1-Lucia ISG, 24 hours incubation, read-out: THP-1 Lucia ISG Cells IFN-β EC50. As to the method: Interferon-β Induction: THP-1 ISG Reporter Cell Line
THP-1 Lucia™ ISG cells (InvivoGen) express the secreted luciferase “Lucia” reporter gene under the control of an IRF-inducible composite promotor comprised of five interferon response elements. THP-1 Lucia™ ISG cells were grown in RPMI media plus 2 mM L-glutamine, 10% fetal bovine serum, and 0.5% Pen-Strep. Hygromycin B and Zeocin were present to maintain stable transfection. 10^4 cells were seeded in 96-well plates and incubated overnight 37° C., 5% CO2. 50 μL of serial diluted compounds in media (final 0.5% DMSO) was and incubated for an additional 24 hours. After incubation, the plates were centrifuged at 2000 rpm for 10 min. 50 μl of cell culture supernatant of each well was transferred to a white, opaque 96-well plate. One pouch of QUANTI-Luc™ (InvivoGen) powder was prepared in 25 mL of endotoxin-free water and 100 μL of prepared warm QUANTI-Luc solution were added to each well containing the supernatant. The luminescence signal was measured using a Perkin-Elmer Envision microplate reader. Data were normalized to “% effect” with a positive control STING agonist that was known to maximize the luciferase signal and the negative control DMSO.

A further test deals with R232-STING (Homo sapiens (Human), UniProt Q86WV6, H232R). The settings on record: read-out: R232-STING SPA-IC50 Ki; STING residues 155-341, 100 nM 3H-cGAMP; KI from IC50 with Cheng-Prusoff equation.
Chain of R232-STING (Q86WV6 155-341 H232R): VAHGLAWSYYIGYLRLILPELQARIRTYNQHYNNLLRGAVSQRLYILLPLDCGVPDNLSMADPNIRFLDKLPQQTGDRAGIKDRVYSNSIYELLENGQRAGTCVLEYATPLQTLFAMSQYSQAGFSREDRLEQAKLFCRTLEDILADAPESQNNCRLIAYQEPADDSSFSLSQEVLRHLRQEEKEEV

The term EC50 denotes the concentration that produces a half-maximal response. For orientation: Ki means a dissociation constant, usually derived from enzyme kinetics or from competition with a known ligand.

Consider `Cc1cc(-c2cn(C)c(-c3nc(C(N)=O)cc4c3cnn4C)n2)n(C[C@@H]2CCO2)n1` (single isomer, unassigned) [AIM02], for which the EC50 was more than 10000 nM in test [1] and 8960 nM in test [2]. Moreover, the Ki at R232-STING came out at 135 nM.

`Cc1cc(-c2cn(C)c(-c3nc(C(N)=O)cc4c3cnn4C)n2)n(C[C@H]2CCO2)n1` (single isomer, unassigned) [Example AIM01]: the EC50 in test [1] and in test [2] was more than 10000 nM in each case. In addition, the Ki on R232-STING was 175 nM.

As for `CCn1cc(-c2cc(C)nn2CC)nc1-c1nc(C(N)=O)cc2c1cnn2C` [AIA02, 4-[1-ethyl-4-(1-ethyl-3-methyl-1H-pyrazol-5-yl)-1H-imidazol-2-yl]-1-methyl-1H-pyrazolo[4,3-c]pyridine-6-carboxamide], the values for the EC50 in test [1] and in test [2] were 800 nM and 770 nM, respectively. The Ki at R232-STING worked out at 18 nM.

Consider `CCn1nc(C)cc1-c1cn(C(C)C)c(-c2nc(C(N)=O)cc3c2cnn3C)n1` [AIA03, 4-[4-(1-ethyl-3-methyl-1H-pyrazol-5-yl)-1-(propan-2-yl)-1H-imidazol-2-yl]-1-methyl-1H-pyrazolo[4,3-c]pyridine-6-carboxamide], for which the EC50 stood at 4890 nM in test [1] and 4530 nM in test [2]. In addition, the Ki at R232-STING came to 71.4 nM.

As to `CCn1nc(C)cc1-c1cn(CC(F)F)c(-c2nc(C(N)=O)cc3c2cnn3C)n1` [AIA04, 4-[1-(2,2-difluoroethyl)-4-(1-ethyl-3-methyl-1H-pyrazol-5-yl)-1H-imidazol-2-yl]-1-methyl-1H-pyrazolo[4,3-c]pyridine-6-carboxamide], the EC50 in test [1] was determined as 1260 nM; in test [2], 1310 nM. The Ki at R232-STING stood at 33.8 nM.

For the compound `CCn1nc(C)cc1-c1cn(C)c(-c2nc(C(N)=O)cc3c2ccn3C)n1` [AIC02, 4-[4-(1-ethyl-3-methyl-1H-pyrazol-5-yl)-1-methyl-1H-imidazol-2-yl]-1-methyl-1H-pyrrolo[3,2-c]pyridine-6-carboxamide], the EC50 in test [1] and in test [2] was more than 10000 nM in each case. The Ki at R232-STING is 113 nM.

`CCn1ncc2c(-c3nc(-c4cc(C)nn4CCCOC)cn3C)nc(C(N)=O)cc21` [AIC03, 1-ethyl-4-{4-[1-(3-methoxypropyl)-3-methyl-1H-pyrazol-5-yl]-1-methyl-1H-imidazol-2-yl}-1H-pyrazolo[4,3-c]pyridine-6-carboxamide]: the EC50 amounted to 650 nM in test [1] and 700 nM in test [2]. In addition, the inhibition constant (Ki) on R232-STING amounted to 7.8 nM.

With `CCn1cc(-c2cc(C)nn2CCCO)nc1-c1nc(C(N)=O)cc2c1cnn2C` [AIE02, 4-{1-ethyl-4-[1-(3-hydroxypropyl)-3-methyl-1H-pyrazol-5-yl]-1H-imidazol-2-yl}-1-methyl-1H-pyrazolo[4,3-c]pyridine-6-carboxamide], the EC50 in test [1] was found to be 200 nM; in test [2] it was 270 nM. Also, the Ki at R232-STING turned out to be 12.7 nM.

Turning to `Cc1cc(-c2cn(C)c(-c3nc(C(N)=O)cc4c3cnn4C)n2)n(CCCCCO)n1` [AIE03, 4-{4-[1-(5-hydroxypentyl)-3-methyl-1H-pyrazol-5-yl]-1-methyl-1H-imidazol-2-yl}-1-methyl-1H-pyrazolo[4,3-c]pyridine-6-carboxamide], the EC50 in test [1] and in test [2] was 310 nM in each case. At R232-STING, the Ki came out at 10.7 nM.

Consider `Cc1cc(-c2cn(C)c(-c3nc(C(N)=O)cc4c3cnn4C)n2)n(CCCCO)n1` [AIE04, 4-{4-[1-(4-hydroxybutyl)-3-methyl-1H-pyrazol-5-yl]-1-methyl-1H-imidazol-2-yl}-1-methyl-1H-pyrazolo[4,3-c]pyridine-6-carboxamide], for which the EC50 is 690 nM in test [1] and 740 nM in test [2]. The Ki on R232-STING amounted to 13.7 nM.

With `COCCn1nc(C)cc1-c1cn(C)c(-c2nc(C(N)=O)cc3c2cnn3C)n1` [AIF02, 4-{4-[1-(2-methoxyethyl)-3-methyl-1H-pyrazol-5-yl]-1-methyl-1H-imidazol-2-yl}-1-methyl-1H-pyrazolo[4,3-c]pyridine-6-carboxamide], the EC50 in test [1] was 2090 nM; in test [2], 2160 nM. On R232-STING, the Ki came to 54.6 nM.

Regarding `COCCCn1nc(C)cc1-c1cn(C)c(-c2nc(C(N)=O)cc3c2cnn3C)n1` [AIF03, 4-{4-[1-(3-methoxypropyl)-3-methyl-1H-pyrazol-5-yl]-1-methyl-1H-imidazol-2-yl}-1-methyl-1H-pyrazolo[4,3-c]pyridine-6-carboxamide], the values for the EC50 in test [1] and in test [2] were 140 nM and 160 nM, respectively. For the same compound, the Ki on R232-STING worked out at 5.7 nM.

For `Cc1cc(-c2cn(C)c(-c3nc(C(N)=O)cc4c3cnn4C)n2)n(CC2CC2)n1` [AIF04, 4-{4-[1-(cyclopropylmethyl)-3-methyl-1H-pyrazol-5-yl]-1-methyl-1H-imidazol-2-yl}-1-methyl-1H-pyrazolo[4,3-c]pyridine-6-carboxamide], the 50% effective concentration (EC50) came out at 2120 nM in test [1] and 2380 nM in test [2]. In addition, at R232-STING, the Ki is 23.6 nM.

As for `Cc1cc(-c2cn(C)c(-c3nc(C(N)=O)cc4c3cnn4C)n2)n(CCC(F)(F)F)n1` [AIF05, 1-methyl-4-{1-methyl-4-[3-methyl-1-(3,3,3-trifluoropropyl)-1H-pyrazol-5-yl]-1H-imidazol-2-yl}-1H-pyrazolo[4,3-c]pyridine-6-carboxamide], the Ki at R232-STING is more than 990 nM.

As for `Cc1cc(-c2cn(C)c(-c3nc(C(N)=O)cc4c3cnn4C)n2)n(CC(F)(F)F)n1` [AIF06, 1-methyl-4-{1-methyl-4-[3-methyl-1-(2,2,2-trifluoroethyl)-1H-pyrazol-5-yl]-1H-imidazol-2-yl}-1H-pyrazolo[4,3-c]pyridine-6-carboxamide], the EC50 in test [1] is 2610 nM; in test [2], 2570 nM. Moreover, at R232-STING, the Ki was found to be 18.2 nM.

For the compound `CCn1nc(C)c(O)c1-c1cn(C)c(-c2nc(C(N)=O)cc3c2cnn3C)n1` [AIF07, 4-[4-(1-ethyl-4-hydroxy-3-methyl-1H-pyrazol-5-yl)-1-methyl-1H-imidazol-2-yl]-1-methyl-1H-pyrazolo[4,3-c]pyridine-6-carboxamide], the EC50 stood at 310 nM in test [1] and 200 nM in test [2]. The Ki on R232-STING was found to be 2 nM.

Regarding `CCn1nc(C)c(Cl)c1-c1cn(C)c(-c2nc(C(N)=O)cc3c2cnn3C)n1` [AIF08, 4-[4-(4-chloro-1-ethyl-3-methyl-1H-pyrazol-5-yl)-1-methyl-1H-imidazol-2-yl]-1-methyl-1H-pyrazolo[4,3-c]pyridine-6-carboxamide], the Ki on R232-STING is more than 990 nM.

For the compound `CCn1nc(C(F)(F)F)cc1-c1cn(C)c(-c2nc(C(N)=O)cc3c2cnn3C)n1` [AIF09, 4-{4-[1-ethyl-3-(trifluoromethyl)-1H-pyrazol-5-yl]-1-methyl-1H-imidazol-2-yl}-1-methyl-1H-pyrazolo[4,3-c]pyridine-6-carboxamide], the Ki at R232-STING was more than 990 nM.

`CCc1nn(C)cc1-c1cn(C)c(-c2nc(C(N)=O)cc3c2cnn3C)n1` [AIH01, 4-[4-(3-ethyl-1-methyl-1H-pyrazol-4-yl)-1-methyl-1H-imidazol-2-yl]-1-methyl-1H-pyrazolo[4,3-c]pyridine-6-carboxamide]: the Ki on R232-STING was determined as 352 nM.

As to `CCn1nc(C)cc1-c1cn(Cc2ccccc2)c(-c2nc(C(N)=O)cc3c2cnn3C)n1` [AIP03], at R232-STING, the Ki was more than 990 nM.

Consider `CCn1nc(C)cc1-c1cn(C2CC2)c(-c2nc(C(N)=O)cc3c2cnn3C)n1` [Example AIB01, 4-[1-cyclopropyl-4-(1-ethyl-3-methyl-1H-pyrazol-5-yl)-1H-imidazol-2-yl]-1-methyl-1H-pyrazolo[4,3-c]pyridine-6-carboxamide], for which the Ki at R232-STING was 257 nM.
